Test results from US20210038577A1, “THIOREDOXIN REDUCTASE INHIBITORS FOR USE IN THE TREATMENT OF CANCER” (Cinda Pharma AB, priority 2018, published 2021).

Legend:
[1] = target: T1, recombinant rat TrxR (Rattus norvegicus, UniProt O89049); assay: Sec-dependent TrxR activity (DTNB assay); format: biochemical; conditions: binding time of 4 hours (FIG. 1A)
T1 sequence (O89049 1-499): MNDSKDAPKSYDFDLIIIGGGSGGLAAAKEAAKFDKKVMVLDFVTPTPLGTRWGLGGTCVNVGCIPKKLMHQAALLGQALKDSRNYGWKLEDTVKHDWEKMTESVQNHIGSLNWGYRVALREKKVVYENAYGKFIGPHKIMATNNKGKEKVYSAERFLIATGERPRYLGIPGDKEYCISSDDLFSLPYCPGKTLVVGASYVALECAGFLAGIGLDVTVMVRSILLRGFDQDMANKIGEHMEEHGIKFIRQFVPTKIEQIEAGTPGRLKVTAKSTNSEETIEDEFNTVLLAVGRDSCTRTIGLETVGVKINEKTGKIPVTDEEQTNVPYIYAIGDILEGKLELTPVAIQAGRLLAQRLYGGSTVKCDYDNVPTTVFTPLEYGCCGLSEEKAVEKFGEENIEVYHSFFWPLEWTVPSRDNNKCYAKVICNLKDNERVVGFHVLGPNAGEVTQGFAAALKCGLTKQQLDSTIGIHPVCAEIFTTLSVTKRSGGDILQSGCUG
Method: Sec-dependent TrxR activity was assessed using a 5′-5-dithiobis-(2-nitrobenzoic acid) (DTNB) assay. Multiple concentrations of compounds were incubated for various time points in reaction buffer, consisting of 50 mM Tris pH 7.5 with 2 mM EDTA and 0.1 mg/mL bovine serum albumin, and containing recombinant rat TrxR and 250 μM NADPH. 2.5 mM DTNB was added to each well and TNB^− production was followed at OD412. […] The amino acid sequence of rat TrxR1 is available in Gen Bank, with accession number AAF32362.1.

[2] = tested on: Tregs in TM00098 patient-derived xenografts; assay: Tumor infiltrated Treg levels by flow cytometry, TM00098 PDX in Hu-CD34-NSG mice; format: in vivo; conditions: day 41, both donors, versus vehicle / other treatment
Method: Female NSG mice were implanted with human CD34+ hematopoietic stem cells from multiple donors and the level of human CD45+ cells were measured in the peripheral blood 12 weeks post engraftment. Mice with >25% human CD45+ cells in the peripheral blood were determined to have a humanized immune system (Hu-CD34-NSG™) mice and were enrolled into the study. The Hu-CD34-NSG mice were implanted with TM00098 patient-derived xenografts (PDX) subcutaneously on the right flank. The TM00098 PDX cancer cells originate from a primary tumor of a patient suffering from a grade 3 TNBC invasive ductal carcinoma. […] Tumor volume was measured using a digital caliper two times a week for the duration of the study. […] Cell populations was determined by electronic gating (P1=total leukocytes) on the basis of forward versus side scatter. […] The percentage of Tregs of CD45+ cells were calculated. […] Statistical significance (p<0.05) was determined using a Mann-Whitney test.

| potency relative to Iniparib, TrxR C-terminal activity [1] [fold] | Compound | levels of tumor infiltrated Tregs (% Tregs of CD45+ cells) [2] |
| --- | --- | --- |
| 1000 | COc1ccc([N+](=O)[O-])c(S(=O)(=O)c2ccc(Cl)cc2)n1 [OT-1000, 2-((4-Chlorophenyl)sulfonyl)-6-methoxy-3-nitropyridine] | – |
| – | CCCCCCCCS(=O)(=O)c1nc(OC)ccc1[N+](=O)[O-] [OT-1096, 6-methoxy-3-nitro-2-(octylsulfonyl)pyridine] | decreased |
